Source: publication PMC9055924 (RSC Advances, 2020)

Target: T1, TLP-1 (Prunus mume, UniProt A0ABM0NSQ8)
T1 sequence (A0ABM0NSQ8 27-249): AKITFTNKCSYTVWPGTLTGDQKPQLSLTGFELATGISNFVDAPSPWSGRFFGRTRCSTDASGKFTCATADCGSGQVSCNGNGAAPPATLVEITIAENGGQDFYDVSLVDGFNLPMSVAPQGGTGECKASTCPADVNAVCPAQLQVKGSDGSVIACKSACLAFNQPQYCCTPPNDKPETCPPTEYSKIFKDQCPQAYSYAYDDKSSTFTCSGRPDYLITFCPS
Experiment: catechol oxidation, absorbance at […] nm
Type: biochemical
Settings: read-out: Relative activity (%) / 10 (mM)

activity at 10000 µM [%]	SMILES
15.6 ± 0.44	CCCCCCc1ccc(O)cc1O [4-Hexylresorcinol]
83.5 ± 2.24	NC(=O)CC[C@H](N)C(=O)O [L-Glutamine]
